Laboratory results from patent US20100129434A1, “COMPOSITIONS AND METHODS FOR THE TREATMENT OF MUCORMYCOSIS AND OTHER FUNGAL DISEASES” (priority 2006, published 2010).

Tests used:
Non-oryzae Rhizopus = test: Deferasirox susceptibility testing (MIC/MFC), non-oryzae Rhizopus isolates; format: cell-based, Rhizopus spp.
Description: Minimum inhibitory concentration (MIC) and minimum fungicidal concentration (MFC) were determined for deferasirox by the method of Espinel-Ingroff using R. oryzae spores starved for iron (Espinel-Ingroff, (2001), supra). Cidality was defined as a <4-fold difference between MIC and MFC.
We next determined the deferasirox susceptibilities of multiple clinical isolates of Mucorales (Table 3). The MIC9OS of deferasirox against Mucor, non-oryzae Rhizopus spp., and R. oryzae were 3.12 to 6.25 μg/ml. MFCs were similar to MICs, and deferasirox was cidal for 28/29 (97%) of isolates. Of note, slight growth was seen within the first twelve hours even at extremely high concentrations of deferasirox. […] Furthermore, the MICs and MFCs of deferasirox against these isolates were well below clinically achievable peak (˜38 μg/ml) and trough serum levels (˜17 μg/ml) of the drug at steady state when administered at the FDA-approved starting dose (20 mg/kg/d).

R. oryzae 99-892 = test: Kidney histopathology of DKA mice infected with R. oryzae; format: in vivo; conditions: 10 mg/kg bid
Description: For in vivo infection, BALB/c male mice (>20 g) were rendered diabetic with a single i.p. injection of 210 mg/kg streptozotocin in 0.2 ml citrate buffer 10 days prior to fungal challenge. Glycosuria and ketonuria were confirmed in all mice 7 days after streptozotocin treatment. For neutropenic mouse model, mice were injected with a single i.p. dose of 200 mg/kg cyclolphosphamide (Bristol Myer Squibb) 2 days prior to infection with R. oryzae. […] Mice were infected through the tail vein with the appropriate inocula of R. oryzae. To confirm the inocula, dilutions were streaked on PDA plates containing 0.1% triton and colonies were counted following a 24 h incubation period at 37° C. The primary efficacy endpoint was time to death. As a secondary endpoint, brain fungal burden (the primary target organ) was determined by homogenization by rolling a pipette on organs placed in Whirl-Pak™ bags (Nasco®, Fort Atkinson, Wis.) containing 1 ml saline. The homogenate was serially diluted in 0.85% saline and then quantitatively cultured on PDA. Values were expressed as log10 cfu g−1 tissue. […]
To determine the impact of deferasirox on tissue fungal burden, diabetic ketoacidotic mice were infected via the tail-vein with 4.2×10^4 spores of R. oryzae 99-892. […] Kidneys and brains were removed on day four, homogenized, and quantitatively cultured.

rFTR1 promoter = test: Green fluorescent protein (GFP) reporter assay, rFTR1 promoter; format: cell-based, Rhizopus oryzae; conditions: R. oryzae M16 transformed with rFTR1p::GFP
Text: A 1.5 kb fragment upstream of the rFTR10RF was PCR amplified using the following primer pair: sense primer 5′-[…]-3′; and anti-sense primer 5′-[…]-3′. A 2.1 kb fragment containing the constitutively expressed actin promoter was also PCR amplified to use as a control using the following primer pair: sense 5′[…]-3′; and anti-sense:5′ […]-3. Amplified fragments were ligated into the XbaI and EagI sites of plasmid pyr225b (35). GFP was amplified from pGFPB21-43.31 (36), and cloned downstream of either promoter into EagI-SacI sites of the plasmid downstream of either promoter. Finally, a 2.1 kb fragment representing the ORF of pyrF and its native promoter was cloned into SpeI-ClaI sites of the plasmid to serve as a selection marker. […] Purified transformants selected on uracil negative plates were analyzed by Southern blotting.
Expression of rFTR1p and ACT1p were studied in transformants grown in iron-replete medium (i.e. YNB+CSM-URA) or iron-depleted conditions (i.e. YNB+CSM-URA supplemented with 2 mM deferasirox). […] Additionally, a 1 ml sample from each culture was also used to quantify the fluorescence emission using a FACSCaliber™ (Becton Dickinson®) instrument equipped with an argon laser emitting at 488 nm. Spores were gated by forward and side scatter and fluorescence measured in FL1. […]

[1] = 24 h, R. microsporus ATCC 62417
[2] = 48 h, R. microsporus ATCC 62417
[3] = Non-oryzae Rhizopus MIC90/MFC90, 24 h
[4] = Non-oryzae Rhizopus MIC90/MFC90, 48 h
[5] = Rhizopus, 24 h, Rhizopus sp. 99-1150
[6] = Rhizopus, 24 h, Rhizopus sp. 99-1700
[7] = Rhizopus, 48 h, Rhizopus sp. 99-1150
[8] = Rhizopus, 48 h, Rhizopus sp. 99-1700
[9] = Rhizopus, ATCC20577, 24 h, Rhizopus sp. ATCC 20577, 24 h
[10] = Rhizopus, ATCC20577, 48 h, Rhizopus sp. ATCC 20577, 48 h

O=C(O)c1ccc(-n2nc(-c3ccccc3O)nc2-c2ccccc2O)cc1 [Deferasirox, 4-[3,5-Bis(2-hydroxyphenyl)-1H-1,2,4-triazol-1-yl]-benzoic acid]
fluorescent: GFP fluorescence by confocal microscopy (rFTR1 promoter; 2 mM deferasirox)
6.25 µg/mL: MFC90 (Non-oryzae Rhizopus; [3]) | MIC90 (Non-oryzae Rhizopus; [3]) | MFC90 (Non-oryzae Rhizopus; [4]) | MFC (Non-oryzae Rhizopus; [5]) | MIC (Non-oryzae Rhizopus; [5]) | MFC (Non-oryzae Rhizopus; [6]) | MIC (Non-oryzae Rhizopus; [6]) | MFC (Non-oryzae Rhizopus; [9]) | MFC (Non-oryzae Rhizopus; [10])
prominent: neutrophil influx in the kidneys (R. oryzae 99-892)
1.56 µg/mL: MFC (Non-oryzae Rhizopus; [8]) | MIC (Non-oryzae Rhizopus; [8])
Y (Cidal = MFC/MIC ≦ 4): Fungicidal? (Non-oryzae Rhizopus; [3]) | Fungicidal? (Non-oryzae Rhizopus; [4]) | Fungicidal? (Non-oryzae Rhizopus; R. microsporus ATCC 62417, 24 h) | Fungicidal? (Non-oryzae Rhizopus; R. microsporus ATCC 62417, 48 h) | Fungicidal? (Non-oryzae Rhizopus; Rhizopus sp. 99-1150, 24 h) | Fungicidal? (Non-oryzae Rhizopus; Rhizopus sp. 99-1150, 48 h) | Fungicidal? (Non-oryzae Rhizopus; Rhizopus sp. 99-1700, 24 h) | Fungicidal? (Non-oryzae Rhizopus; Rhizopus sp. 99-1700, 48 h) | Fungicidal? (Non-oryzae Rhizopus; Rhizopus sp. ATCC 20577, 24 h) | Fungicidal? (Non-oryzae Rhizopus; Rhizopus sp. ATCC 20577, 48 h)
no visible hyphae: hyphae in kidneys by histopathology (R. oryzae 99-892)
0.39 µg/mL: MFC (Non-oryzae Rhizopus; [1]) | MIC (Non-oryzae Rhizopus; [1]) | MFC (Non-oryzae Rhizopus; [2]) | MIC (Non-oryzae Rhizopus; [2])
3.12 µg/mL: MIC90 (Non-oryzae Rhizopus; [4]) | MFC (Non-oryzae Rhizopus; [7]) | MIC (Non-oryzae Rhizopus; [7]) | MIC (Non-oryzae Rhizopus; [9]) | MIC (Non-oryzae Rhizopus; [10])
43%: fluorescent spores by flow cytometry (rFTR1 promoter; 2 mM deferasirox overnight, iron-replete less than 1%)
